From US20230339915A1 (Vertex Pharmaceuticals Incorporated, priority 2020, published 2023)
pEC50, pIC50: −log10 of the molar value.

Assays:
[1] = target: NL20 human bronchial epithelial cells expressing human Z-AAT (Homo sapiens (Human), UniProt P01009, E366K); assay: AAT Function Assay (MSD Assay NL20-SI Cell Line); format: cell-based; conditions: functionally active AAT (AAT-hNE complex, MSD) in supernatant of NL20 cells expressing human Z-AAT; read-out: NL20 Functional EC50
Summary of the method: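 NL20 bronchial epithelial cells expressing Z-AAT, induced with 0.1 μM doxycycline, were treated with compound overnight. Functional AAT in supernatant was measured by complex formation with excess human neutrophil elastase, captured on anti-AAT plates, detected with Sulfo-tagged anti-elastase on MSD, and quantified against M-AAT standards (0.156–320 ng/mL).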

[2] = target: purified Z-AAT protein from human plasma (Homo sapiens (Human), UniProt P01009, E366K); assay: Biochemical Assay (Z-AAT Elastase Activity Assay); conditions: purified Z-AAT pre-incubated with compound 1 hour, then human neutrophil elastase and fluorescent substrate
Summary of the method: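 Purified plasma Z-AAT (20 nM) preincubated with compounds 1 h at room temperature, then 3 nM human neutrophil elastase added in PBS + 0.01% BRIJ35 for 30 min to form suicide complex. Residual elastase activity read immediately by fluorescence after adding 300 μM MeOSuc-AAPV-AMC substrate solution.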

Sequence of purified Z-AAT protein from human plasma (P01009 25-418 E366K limits assumed): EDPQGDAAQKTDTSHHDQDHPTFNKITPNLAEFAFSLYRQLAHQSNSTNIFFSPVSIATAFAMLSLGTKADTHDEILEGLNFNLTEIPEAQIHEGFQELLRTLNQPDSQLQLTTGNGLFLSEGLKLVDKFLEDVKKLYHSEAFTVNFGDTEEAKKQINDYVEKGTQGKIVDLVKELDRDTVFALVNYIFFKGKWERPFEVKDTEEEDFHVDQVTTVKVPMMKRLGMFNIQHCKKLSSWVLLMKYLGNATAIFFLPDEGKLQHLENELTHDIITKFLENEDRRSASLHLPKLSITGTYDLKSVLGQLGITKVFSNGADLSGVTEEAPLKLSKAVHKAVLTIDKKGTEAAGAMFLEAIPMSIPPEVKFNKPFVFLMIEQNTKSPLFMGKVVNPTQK
Sequence of NL20 human bronchial epithelial cells expressing human Z-AAT (P01009 25-418 E366K limits assumed): as above

SMILES | pEC50 [1] | pIC50 [2]
Cc1cc(-n2c(C(C)C)c(CC(=O)O)c3cc(O)ccc32)ccc1F [Compound 153, 2-(1-(4-fluoro-3-methylphenyl)-5-hydroxy-2-isopropyl-1H-indol-3-yl)acetic acid] | < 5.70 | < 4.52
Cc1cc(-n2c(C3CC3)c(C(Cc3ccccc3)C(=O)O)c3cc(O)ccc32)ccc1F (stereo not shown) [Compound 156, 2-(2-cyclopropyl-1-(4-fluoro-3-methylphenyl)-5-hydroxy-1H-indol-3-yl)-3-phenylpropanoic acid] | < 5.70 | < 4.52
CCC(C(=O)O)c1c(C)n(-c2ccc(F)c(C)c2)c2ccc(O)cc12 (stereo not shown) [Compound 158] | < 5.70 | < 4.52
Cc1cc(-n2c(C)c(C(C)C(=O)O)c3cc(O)ccc32)ccc1F (stereo not shown) [Compound 159] | < 5.70 | < 4.52
Cc1cc(-n2c(C)c(CC(=O)O)c3cc(O)ccc32)ccn1 [Compound 161] | < 5.70 | < 4.52
Cc1cc(-n2c(C)c(CC(=O)O)c3cc(O)ccc32)ccc1F [Compound 162] | < 5.70 | < 4.52
Cc1cc(-n2c(C(C)C)c(CCC(=O)O)c3cc(O)c(F)cc32)ccc1F [Compound 163, 3-(6-fluoro-1-(4-fluoro-3-methylphenyl)-5-hydroxy-2-isopropyl-1H-indol-3-yl)propanoic acid] | > 6.30 | < 4.52
COCC(C)(C)c1c(-c2ccc(C(=O)O)cc2)c2cc(O)ccc2n1-c1ccc(F)cc1 [Compound 164, 4-(1-(4-fluorophenyl)-5-hydroxy-2-(1-methoxy-2-methylpropan-2-yl)-1H-indol-3-yl)benzoic acid] | > 6.30 | > 5.70
Cc1cc(-n2c(C(C)C)c(-c3cccc(C(=O)O)c3)c3cc(O)ccc32)ccc1F [Compound 168] | > 6.30 | 5.30 to 5.70
Cc1cc(-n2c(C(C)C)c(-c3ccccc3C(=O)O)c3cc(O)ccc32)ccc1F [Compound 169] | < 5.70 | < 4.52
Cc1cc(-n2c(C(C)C)c(-c3cncc(C(=O)O)c3)c3cc(O)ccc32)ccc1F [Compound 172] | 5.70 to 6.30 | 5.30 to 5.70
Cc1nccc(-n2c(C(C)C)c(-c3ccc(C(=O)O)cc3)c3cc(O)ccc32)n1 [Compound 174] | < 5.70 | < 4.52
Cc1cc(-n2c(C(C)C)c(C(C)CC(=O)O)c3cc(O)ccc32)ccc1F (stereo not shown) [Compound 176] | 5.70 to 6.30 | < 4.52
COCC(C)(C)c1c(-c2ccc(C(=O)O)cc2)c2cc(O)c(Cl)cc2n1-c1ccc(F)cc1 [Compound 177, 4-(6-chloro-1-(4-fluorophenyl)-5-hydroxy-2-(1-methoxy-2-methylpropan-2-yl)-1H-indol-3-yl)benzoic acid] | > 6.30 | > 5.70
COCC(C)(C)c1c(-c2ccc(C(=O)O)cc2)c2c(Cl)c(O)ccc2n1-c1ccc(F)cc1 [Compound 178, 4-[4-chloro-1-(4-fluorophenyl)-5-hydroxy-2-(2-methoxy-1,1-dimethyl-ethyl)indol-3-yl]benzoic acid] | > 6.30 | > 5.70
Cc1cc(-n2c(C(C)C)c(-c3cc(C(=O)O)[nH]n3)c3cc(O)ccc32)ccc1F [Compound 179, 3-[1-(4-fluoro-3-methyl-phenyl)-5-hydroxy-2-isopropyl-indol-3-yl]-1H-pyrazole-5-carboxylic acid] | < 5.70 | < 4.52
CC(C)c1c(-c2cccc(C(=O)O)c2)c2cc(O)ccc2n1C1CC(F)(F)C1 [Compound 180, 3-(1-(3,3-difluorocyclobutyl)-5-hydroxy-2-isopropyl-1H-indol-3-yl)benzoic acid] | < 5.70 | < 4.52
Cc1cc(-n2c(C(C)C)c(/C=C/C(=O)O)c3cc(O)c(F)cc32)ccc1F [Compound 181, (E)-3-(6-fluoro-1-(4-fluoro-3-methylphenyl)-5-hydroxy-2-isopropyl-1H-indol-3-yl)acrylic acid] | < 5.70 | < 5.30
CCC(O)c1c(C#N)c2cc(O)ccc2n1-c1ccnc(C)c1 (stereo not shown) [Compound 192, 5-hydroxy-2-(I-hydroxypropyl)-1-(2-methylpyridin-4-yl)-1H-indole-3-carbonitrile] | < 5.70 | < 4.52
Cc1cc(-n2c(C(C)C)c(C#N)c3cc(O)c(F)cc32)ccc1F [Compound 193, 6-fluoro-1-(4-fluoro-3-methylphenyl)-5-hydroxy-2-isopropyl-1H-indole-3-carbonitrile] | 5.70 to 6.30 | < 4.52
CCCn1c(C(C)C)c(C#N)c2cc(O)ccc21 [Compound 204, 5-hydroxy-2-isopropyl-1-propyl-1H-indole-3-carbonitrile] | < 5.70 | < 4.52
CCCn1c(C(C)(C)C)c(C#N)c2cc(O)ccc21 [Compound 205, 2-(tert-butyl)-5-hydroxy-1-propyl-1H-indole-3-carbonitrile] | < 5.70 | < 4.52
Cc1cc(-n2c(C)c(C#N)c3cc(O)cc(C)c32)ccc1F [Compound 208, 1-(4-fluoro-3-methylphenyl)-5-hydroxy-2,7-dimethyl-1H-indole-3-carbonitrile] | < 5.70 | < 4.52
Cc1cc2c(cc1O)c(C#N)c(C)n2-c1ccc(F)c(C)c1 [Compound 210] | < 5.70 | < 4.52
Cc1cc(-n2c(C)c(C#N)c3cc(O)c(N)cc32)ccc1F [Compound 211, 6-amino-1-(4-fluoro-3-methylphenyl)-5-hydroxy-2-methyl-1H-indole-3-carbonitrile] | < 5.70 | < 4.52
Cc1cc(-n2c(C)c(C#N)c3cc(O)cc(N)c32)ccc1F [Compound 212, 7-amino-1-(4-fluoro-3-methyl-phenyl)-5-hydroxy-2-methyl-indole-3-carbonitrile] | < 5.70 | < 4.52

Further lines, results first:

pEC50 [1] | pIC50 [2] | SMILES
< 5.70 | < 4.52 | Cc1cc(-n2c(C3CC3)c(CC(=O)O)c3cc(O)ccc32)ccc1F [Compound 160]
5.70 to 6.30 | > 5.70 | CC(C)(CC#N)c1c(-c2ccc(C(=O)O)cc2)c2cc(O)ccc2n1-c1ccc(F)cc1 [Compound 165, 4-(2-(1-cyano-2-methylpropan-2-yl)-1-(4-fluorophenyl)-5-hydroxy-1H-indol-3-yl)benzoic acid]
< 5.70 | < 4.52 | Cc1cc(-n2c(C3CCOCC3)c(-c3ccc(C(=O)O)cc3)c3cc(O)ccc32)ccc1F [Compound 166, 4-(1-(4-fluoro-3-methylphenyl)-5-hydroxy-2-(tetrahydro-2H-pyran-4-yl)-1H-indol-3-yl)benzoic acid]
5.70 to 6.30 | < 4.52 | Cc1cc(-n2c(C#N)c(-c3ccc(C(=O)O)cc3)c3cc(O)ccc32)ccc1F [Compound 175]
< 5.70 | < 5.30 | Cc1c(C2(C#N)CC2)c2cc(O)ccc2n1-c1ccc(F)cc1 [Compound 184, 1-(1-(4-fluorophenyl)-5-hydroxy-2-methyl-1H-indol-3-yl)cyclopropane-1-carbonitrile]
> 6.30 | < 4.52 | CC(C)c1c(C#N)c2cc(O)ccc2n1-c1ccc(F)cc1 [Compound 185, 1-(4-fluorophenyl)-5-hydroxy-2-isopropyl-1H-indole-3-carbonitrile]
> 6.30 | < 5.30 | CC(C)(C)c1c(C#N)c2cc(O)ccc2n1-c1ccc(F)cc1 [Compound 186]
5.70 to 6.30 | < 4.52 | Cc1cc(-n2c(C(C)C)c(C#N)c3cc(O)ccc32)ccc1F [Compound 187]
5.70 to 6.30 | < 4.52 | N#Cc1c(C2CCC2)n(-c2ccc(F)cc2)c2ccc(O)cc12 [Compound 188]
< 5.70 | < 4.52 | C/C=C/c1c(C#N)c2cc(O)ccc2n1-c1ccc(F)cc1 [Compound 191, 1-(4-fluorophenyl)-5-hydroxy-2-[(E)-prop-1-enyl]indole-3-carbonitrile]
5.70 to 6.30 | < 4.52 | N#Cc1c(C2CCOCC2)n(-c2ccc(F)cc2)c2ccc(O)cc12 [Compound 194, 1-(4-fluorophenyl)-5-hydroxy-2-(tetrahydro-2H-pyran-4-yl)-1H-indole-3-carbonitrile]
< 5.70 | < 4.52 | CC(C)(C)OC(=O)N1CC(c2c(C#N)c3cc(O)ccc3n2-c2ccc(F)cc2)C1 [Compound 195]
< 5.70 | < 4.52 | N#Cc1c(C2CNC2)n(-c2ccc(F)cc2)c2ccc(O)cc12 [Compound 196]
5.70 to 6.30 | < 4.52 | N#Cc1c(C2CCC2)n(-c2ccccc2)c2ccc(O)cc12 [Compound 197]
< 5.70 | < 4.52 | N#Cc1c(C2CCCO2)n(-c2ccc(F)cc2)c2ccc(O)cc12 (stereo not shown) [Compound 198]
< 5.70 | < 4.52 | CC(C)(C)OC(=O)N1CCC(c2c(C#N)c3cc(O)ccc3n2-c2ccc(F)cc2)CC1 [Compound 199]
< 5.70 | < 4.52 | N#Cc1c(C2CCNCC2)n(-c2ccc(F)cc2)c2ccc(O)cc12 [Compound 200]
< 5.70 | < 4.52 | N#Cc1c(C2CCOCC2)n(-c2ccccc2)c2ccc(O)cc12 [Compound 202]
> 6.30 | < 4.52 | N#Cc1c(C2CC2)n(-c2ccc(F)cc2)c2ccc(O)cc12 [Compound 203]
< 5.70 | < 4.52 | CS(N)(=O)=Cc1c(C#N)c2cc(O)ccc2n1-c1ccc(F)cc1 (stereo not shown) [Compound 206, 1-(3-cyano-1-(4-fluorophenyl)-5-hydroxy-1H-indol-2-yl)-S-methylmethanesulfinamide]
< 5.70 | < 4.52 | N#Cc1c(C2=S(N)(=O)CCC2)n(-c2ccc(F)cc2)c2ccc(O)cc12 (stereo not shown) [Compound 207]
